This is an account of results in BindingDB's records for doi:10.3109/10799899109064686 (Center For Bio-Pharmaceutical Sciences, 1991).

Among the targets are Histamine H1 receptor (Rattus norvegicus, UniProt P31390); Adenosine receptor A2a (Rattus norvegicus, UniProt P30543); D(2) dopamine receptor (Rattus norvegicus, UniProt P61169); Mu-type opioid receptor (Rattus norvegicus, UniProt P33535).
The target of experiment [1] is T1, Muscarinic acetylcholine receptor M2 (Rattus norvegicus, UniProt P10980).
T1 sequence (P10980 whole entry): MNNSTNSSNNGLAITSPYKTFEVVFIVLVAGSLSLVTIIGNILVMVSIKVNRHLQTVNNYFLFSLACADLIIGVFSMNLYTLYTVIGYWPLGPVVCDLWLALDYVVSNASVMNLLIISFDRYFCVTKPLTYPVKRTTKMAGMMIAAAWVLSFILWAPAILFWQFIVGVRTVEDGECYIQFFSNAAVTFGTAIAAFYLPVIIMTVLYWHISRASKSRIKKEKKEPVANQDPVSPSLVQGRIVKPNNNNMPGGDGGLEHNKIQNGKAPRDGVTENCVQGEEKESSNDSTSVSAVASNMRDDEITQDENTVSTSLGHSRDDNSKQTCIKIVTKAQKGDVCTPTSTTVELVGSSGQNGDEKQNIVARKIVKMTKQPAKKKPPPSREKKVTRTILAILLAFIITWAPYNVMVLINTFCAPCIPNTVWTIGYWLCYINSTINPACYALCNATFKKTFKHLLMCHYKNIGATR

Experiment [2] concerns the target Muscarinic acetylcholine receptor M3 (Rattus norvegicus, UniProt P08483).
In experiment [3] the target is 5-hydroxytryptamine receptor 1B (Rattus norvegicus, UniProt P28564).
Chain of 5-hydroxytryptamine receptor 1B (P28564 whole entry): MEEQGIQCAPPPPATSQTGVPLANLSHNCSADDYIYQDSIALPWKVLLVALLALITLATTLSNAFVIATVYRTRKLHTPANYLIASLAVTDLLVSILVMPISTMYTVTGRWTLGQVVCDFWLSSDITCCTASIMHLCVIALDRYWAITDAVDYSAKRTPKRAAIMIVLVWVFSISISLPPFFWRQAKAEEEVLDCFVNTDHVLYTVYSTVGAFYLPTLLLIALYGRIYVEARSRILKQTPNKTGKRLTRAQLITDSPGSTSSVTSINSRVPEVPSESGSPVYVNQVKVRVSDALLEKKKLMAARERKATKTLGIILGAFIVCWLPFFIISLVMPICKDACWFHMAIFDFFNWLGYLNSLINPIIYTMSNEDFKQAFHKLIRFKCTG
For experiment [4], the target named is Beta-1 adrenergic receptor (Rattus norvegicus, UniProt P18090).
Chain of Beta-1 adrenergic receptor (P18090 whole entry): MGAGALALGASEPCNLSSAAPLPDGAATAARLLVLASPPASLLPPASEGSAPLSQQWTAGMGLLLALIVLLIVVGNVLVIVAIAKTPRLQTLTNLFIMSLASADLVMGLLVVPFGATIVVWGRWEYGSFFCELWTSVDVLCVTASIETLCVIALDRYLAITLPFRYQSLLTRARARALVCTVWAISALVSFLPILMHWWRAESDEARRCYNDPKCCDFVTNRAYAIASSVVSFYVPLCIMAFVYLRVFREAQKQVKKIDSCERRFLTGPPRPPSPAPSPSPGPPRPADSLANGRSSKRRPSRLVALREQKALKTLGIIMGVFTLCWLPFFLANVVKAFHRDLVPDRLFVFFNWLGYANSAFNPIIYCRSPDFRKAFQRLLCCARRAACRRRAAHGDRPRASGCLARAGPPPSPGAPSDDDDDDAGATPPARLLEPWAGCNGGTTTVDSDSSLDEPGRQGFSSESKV
For experiment [5], the target named is 5-hydroxytryptamine 1D receptor (Bos taurus, UniProt Q8MI13).
Chain of 5-hydroxytryptamine 1D receptor (Q8MI13 whole entry): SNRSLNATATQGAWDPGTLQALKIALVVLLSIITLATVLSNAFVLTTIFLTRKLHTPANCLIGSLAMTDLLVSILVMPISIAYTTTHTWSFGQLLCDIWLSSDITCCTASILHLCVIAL
The target of experiment [6] is 5-hydroxytryptamine receptor 2A (Rattus norvegicus, UniProt P14842).
Chain of 5-hydroxytryptamine receptor 2A (P14842 whole entry): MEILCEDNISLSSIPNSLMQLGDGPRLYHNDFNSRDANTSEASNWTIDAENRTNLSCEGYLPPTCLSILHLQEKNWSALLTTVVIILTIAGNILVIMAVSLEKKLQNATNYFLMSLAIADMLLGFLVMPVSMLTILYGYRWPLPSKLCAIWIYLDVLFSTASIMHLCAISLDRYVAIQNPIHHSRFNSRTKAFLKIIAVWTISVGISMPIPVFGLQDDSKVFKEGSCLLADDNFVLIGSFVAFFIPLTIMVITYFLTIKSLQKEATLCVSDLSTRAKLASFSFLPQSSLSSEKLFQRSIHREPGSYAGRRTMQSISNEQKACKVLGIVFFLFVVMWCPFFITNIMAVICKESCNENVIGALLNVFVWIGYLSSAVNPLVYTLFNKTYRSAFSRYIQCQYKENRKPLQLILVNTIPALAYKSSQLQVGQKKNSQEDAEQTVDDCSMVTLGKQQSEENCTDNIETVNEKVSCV
Experiment [7] concerns the target Gamma-aminobutyric acid receptor subunit alpha-1 (Rattus norvegicus, UniProt P62813).
For experiment [8], the target named is Kappa-type opioid receptor (Rattus norvegicus, UniProt P34975).
Chain of Kappa-type opioid receptor (P34975 whole entry): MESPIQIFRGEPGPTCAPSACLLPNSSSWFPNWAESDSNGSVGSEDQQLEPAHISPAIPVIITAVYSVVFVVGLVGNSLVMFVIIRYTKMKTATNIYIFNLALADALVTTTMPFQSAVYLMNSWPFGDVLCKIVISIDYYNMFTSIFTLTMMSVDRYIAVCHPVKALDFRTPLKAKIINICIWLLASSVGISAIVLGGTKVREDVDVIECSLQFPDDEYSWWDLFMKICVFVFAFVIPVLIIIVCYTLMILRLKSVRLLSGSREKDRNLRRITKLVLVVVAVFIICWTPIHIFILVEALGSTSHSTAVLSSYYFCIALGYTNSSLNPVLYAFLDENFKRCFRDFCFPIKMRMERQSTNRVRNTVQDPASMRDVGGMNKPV
The target in experiment [9] is T2, Alpha-1A adrenergic receptor (Rattus norvegicus, UniProt P43140).
T2 sequence (P43140 whole entry): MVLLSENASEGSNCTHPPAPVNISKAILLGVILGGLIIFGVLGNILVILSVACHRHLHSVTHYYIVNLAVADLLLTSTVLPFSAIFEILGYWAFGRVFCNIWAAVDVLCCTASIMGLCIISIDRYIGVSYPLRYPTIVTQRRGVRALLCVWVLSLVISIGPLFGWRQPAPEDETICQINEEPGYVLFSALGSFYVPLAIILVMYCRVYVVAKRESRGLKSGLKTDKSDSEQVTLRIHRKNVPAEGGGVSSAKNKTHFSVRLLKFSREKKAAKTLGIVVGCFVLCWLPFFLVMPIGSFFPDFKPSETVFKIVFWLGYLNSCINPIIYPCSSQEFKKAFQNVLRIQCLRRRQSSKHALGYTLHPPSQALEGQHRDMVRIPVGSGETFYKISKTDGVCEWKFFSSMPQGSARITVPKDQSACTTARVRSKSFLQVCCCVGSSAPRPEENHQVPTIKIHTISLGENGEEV

Another experiment concerns the target T3, Adenosine receptor A1 (Rattus norvegicus, UniProt P25099).
T3 sequence (P25099 whole entry): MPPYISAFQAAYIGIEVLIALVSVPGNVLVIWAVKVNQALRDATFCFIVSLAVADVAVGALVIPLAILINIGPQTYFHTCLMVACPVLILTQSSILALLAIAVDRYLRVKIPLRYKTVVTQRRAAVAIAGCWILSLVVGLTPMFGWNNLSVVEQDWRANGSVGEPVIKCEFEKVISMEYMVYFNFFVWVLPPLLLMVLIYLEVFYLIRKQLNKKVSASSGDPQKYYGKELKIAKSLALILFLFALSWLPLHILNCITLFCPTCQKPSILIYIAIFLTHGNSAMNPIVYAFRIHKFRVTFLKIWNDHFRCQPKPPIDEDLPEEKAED

Experiment [10] has as its target T4, 5-hydroxytryptamine receptor 2C (Sus scrofa, UniProt G7ZKZ7).
T4 sequence (G7ZKZ7 whole entry): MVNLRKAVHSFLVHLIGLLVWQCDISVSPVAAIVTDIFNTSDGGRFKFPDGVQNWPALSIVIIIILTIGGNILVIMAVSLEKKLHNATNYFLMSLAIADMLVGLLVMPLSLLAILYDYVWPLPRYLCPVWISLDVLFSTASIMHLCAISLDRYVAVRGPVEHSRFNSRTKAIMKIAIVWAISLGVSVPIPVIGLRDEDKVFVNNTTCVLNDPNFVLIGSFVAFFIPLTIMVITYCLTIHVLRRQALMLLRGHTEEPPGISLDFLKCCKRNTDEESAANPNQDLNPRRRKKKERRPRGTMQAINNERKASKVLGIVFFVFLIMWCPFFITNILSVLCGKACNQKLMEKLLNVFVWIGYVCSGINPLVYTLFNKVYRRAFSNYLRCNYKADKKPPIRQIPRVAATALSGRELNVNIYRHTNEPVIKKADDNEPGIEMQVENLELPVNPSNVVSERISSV

Chain of Muscarinic acetylcholine receptor M3 (P08483 whole entry): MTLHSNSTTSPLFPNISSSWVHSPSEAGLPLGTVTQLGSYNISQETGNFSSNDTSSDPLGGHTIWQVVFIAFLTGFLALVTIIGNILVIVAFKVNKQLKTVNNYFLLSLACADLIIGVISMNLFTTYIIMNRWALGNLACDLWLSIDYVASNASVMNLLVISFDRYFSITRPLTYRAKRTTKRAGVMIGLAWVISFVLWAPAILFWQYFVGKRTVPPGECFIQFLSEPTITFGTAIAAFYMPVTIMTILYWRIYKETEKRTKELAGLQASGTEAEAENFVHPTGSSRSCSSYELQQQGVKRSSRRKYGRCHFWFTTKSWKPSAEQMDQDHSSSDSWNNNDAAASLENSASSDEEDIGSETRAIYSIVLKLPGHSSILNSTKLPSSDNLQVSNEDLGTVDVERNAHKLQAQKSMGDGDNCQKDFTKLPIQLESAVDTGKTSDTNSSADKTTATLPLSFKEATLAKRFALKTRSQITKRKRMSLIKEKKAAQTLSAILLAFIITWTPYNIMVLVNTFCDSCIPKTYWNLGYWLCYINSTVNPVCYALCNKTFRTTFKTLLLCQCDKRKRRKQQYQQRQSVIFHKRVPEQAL
Chain of Gamma-aminobutyric acid receptor subunit alpha-1 (P62813 whole entry): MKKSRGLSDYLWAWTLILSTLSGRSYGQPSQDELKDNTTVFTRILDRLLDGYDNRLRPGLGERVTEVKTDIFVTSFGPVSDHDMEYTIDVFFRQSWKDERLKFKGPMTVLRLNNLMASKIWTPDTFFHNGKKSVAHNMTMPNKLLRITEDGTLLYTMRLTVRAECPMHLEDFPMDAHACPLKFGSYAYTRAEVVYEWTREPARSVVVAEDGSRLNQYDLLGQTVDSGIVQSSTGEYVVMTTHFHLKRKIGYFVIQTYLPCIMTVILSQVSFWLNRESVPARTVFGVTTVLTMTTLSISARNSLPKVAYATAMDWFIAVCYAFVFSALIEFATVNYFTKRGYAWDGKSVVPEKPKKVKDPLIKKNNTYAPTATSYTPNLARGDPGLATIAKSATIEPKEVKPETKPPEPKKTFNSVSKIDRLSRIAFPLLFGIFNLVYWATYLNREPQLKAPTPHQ
Chain of Histamine H1 receptor (P31390 whole entry): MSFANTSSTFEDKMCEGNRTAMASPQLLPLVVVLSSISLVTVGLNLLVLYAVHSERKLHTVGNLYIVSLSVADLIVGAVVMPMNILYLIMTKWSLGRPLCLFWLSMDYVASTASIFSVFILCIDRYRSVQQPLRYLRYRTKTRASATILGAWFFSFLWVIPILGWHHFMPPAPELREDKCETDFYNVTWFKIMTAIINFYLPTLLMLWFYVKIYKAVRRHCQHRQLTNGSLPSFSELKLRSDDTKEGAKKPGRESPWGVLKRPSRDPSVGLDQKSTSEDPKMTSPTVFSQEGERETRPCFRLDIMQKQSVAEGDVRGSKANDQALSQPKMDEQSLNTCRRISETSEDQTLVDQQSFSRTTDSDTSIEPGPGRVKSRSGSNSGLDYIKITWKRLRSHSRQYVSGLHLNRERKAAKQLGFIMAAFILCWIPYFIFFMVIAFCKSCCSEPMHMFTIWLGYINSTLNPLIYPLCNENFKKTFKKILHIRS
Chain of Adenosine receptor A2a (P30543 whole entry): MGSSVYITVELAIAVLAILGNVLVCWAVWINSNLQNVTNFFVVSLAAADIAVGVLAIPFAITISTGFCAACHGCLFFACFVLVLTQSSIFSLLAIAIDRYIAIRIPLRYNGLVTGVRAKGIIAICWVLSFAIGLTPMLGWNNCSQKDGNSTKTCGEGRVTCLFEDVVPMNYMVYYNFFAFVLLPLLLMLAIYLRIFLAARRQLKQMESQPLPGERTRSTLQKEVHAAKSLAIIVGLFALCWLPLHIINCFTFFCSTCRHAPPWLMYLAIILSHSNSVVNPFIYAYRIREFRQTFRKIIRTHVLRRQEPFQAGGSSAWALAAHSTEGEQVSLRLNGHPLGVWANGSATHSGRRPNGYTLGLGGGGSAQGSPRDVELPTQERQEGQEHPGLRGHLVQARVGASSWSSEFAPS
Chain of Mu-type opioid receptor (P33535 whole entry): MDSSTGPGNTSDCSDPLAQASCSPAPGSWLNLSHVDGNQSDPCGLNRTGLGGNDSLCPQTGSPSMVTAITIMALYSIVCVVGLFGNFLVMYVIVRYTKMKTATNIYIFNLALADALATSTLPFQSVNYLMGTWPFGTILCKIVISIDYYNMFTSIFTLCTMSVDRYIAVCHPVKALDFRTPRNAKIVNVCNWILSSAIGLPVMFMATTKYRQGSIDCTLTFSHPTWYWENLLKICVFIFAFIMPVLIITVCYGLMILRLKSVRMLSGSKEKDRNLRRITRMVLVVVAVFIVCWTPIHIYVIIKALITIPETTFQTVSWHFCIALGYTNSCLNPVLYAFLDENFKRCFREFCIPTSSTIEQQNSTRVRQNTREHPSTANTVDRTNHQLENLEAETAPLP
Chain of D(2) dopamine receptor (P61169 whole entry): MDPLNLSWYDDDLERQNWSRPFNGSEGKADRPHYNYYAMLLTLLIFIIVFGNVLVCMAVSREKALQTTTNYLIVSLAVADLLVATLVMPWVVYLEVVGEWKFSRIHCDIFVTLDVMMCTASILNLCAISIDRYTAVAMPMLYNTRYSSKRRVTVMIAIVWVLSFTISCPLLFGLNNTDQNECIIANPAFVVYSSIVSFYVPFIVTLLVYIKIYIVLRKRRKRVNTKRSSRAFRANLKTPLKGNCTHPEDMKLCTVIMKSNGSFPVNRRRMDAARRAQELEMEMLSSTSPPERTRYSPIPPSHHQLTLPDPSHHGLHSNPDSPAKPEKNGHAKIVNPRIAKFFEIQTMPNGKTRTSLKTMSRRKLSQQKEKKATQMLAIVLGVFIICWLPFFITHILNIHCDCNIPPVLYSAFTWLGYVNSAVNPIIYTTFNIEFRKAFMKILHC

As to `N=C(N)NC(=O)c1nc(Cl)c(N2CCCCCC2)nc1N`, the Ki in [1] was 2.9 µM; in experiment [2], 4.7 µM; in experiment [3] it was more than 10 µM; on Histamine H1 receptor, 5.6 µM; in [4], more than 10 µM; in experiment [5], more than 10 µM. Also, the inhibition constant Ki in [6] is 0.4 µM; in experiment [7], more than 10 µM; at Adenosine receptor A2a, 4.6 µM; at D(2) dopamine receptor, more than 10 µM; in experiment [8], 3.9 µM; in experiment [9] it was more than 10 µM. In addition, the inhibition constant (Ki) at Adenosine receptor A1 is 1.2 µM; on Mu-type opioid receptor, 0.061 µM; in experiment [10], 6.7 µM.

On to `N=C(N)NC(=O)c1nc(Cl)c(N)nc1N` [3,5-diamino-N-carbamimidoyl-6-chloropyrazine-2-carboxamide], for which the Ki (in experiment [1]; in experiment [2]; in experiment [3]; on Histamine H1 receptor; in experiment [4]; in experiment [5]) was more than 10 µM each time. Moreover, the inhibition constant (Ki) in [6] is more than 10 µM; in experiment [7] it was more than 10 µM; on Adenosine receptor A2a it was 17 µM; on D(2) dopamine receptor, more than 10 µM; in [8], more than 10 µM; in experiment [9] it was more than 10 µM. For the same compound, the Ki on Adenosine receptor A1 is 11 µM; at Mu-type opioid receptor, more than 10 µM; in experiment [10], more than 10 µM.

On to `NC(=NCc1ccccc1)NC(=O)c1nc(Cl)c(N)nc1N` [NSC_108107], for which the Ki is 5.8 µM in experiment [1]; 2.8 µM in experiment [2]; more than 10 µM in experiment [3]; 3.2 µM on Histamine H1 receptor; more than 10 µM in experiment [4]; more than 10 µM in experiment [5]. For the same compound, the Ki in experiment [6] was 1.4 µM; in experiment [7] it was more than 10 µM; at Adenosine receptor A2a, 6.4 µM; on D(2) dopamine receptor it was 7.6 µM; in [8], more than 10 µM; in experiment [9], 2 µM. Besides, the values for the Ki (at Adenosine receptor A1; at Mu-type opioid receptor; in [10]) were 0.98 µM, 1.1 µM and more than 10 µM, respectively.

For orientation: Ki means a measure of affinity in units of concentration, obtained from inhibition or displacement.
